Measured values from ChEMBL document CHEMBL5465560, “Selectivity Literature for EUbOPEN Chemogenomic Library” (2024).

Assays:
[1] = target: Tyrosine-protein kinase JAK2 (Homo sapiens, UniProt O60674); test: Selectivity interaction (KinomeScan (DiscoverX)) EUB0001049a JAK2; conditions: at 1 µM
[2] = target: Casein kinase I isoform gamma-3 (Homo sapiens) (UniProt Q9Y6M4); test: Selectivity interaction (KinomeScan (DiscoverX)) EUB0000229b CSNK1G3; conditions: at 10 µM
[3] = target: Thyrotropin-releasing hormone receptor (Homo sapiens) (UniProt P34981); test: Selectivity interaction (Eurofins CEREP Diversity Profile (receptors and ion channels)) EUB0000279b TRH; conditions: at 10 µM
Thyrotropin-releasing hormone receptor (Homo sapiens), sequence (P34981 whole entry): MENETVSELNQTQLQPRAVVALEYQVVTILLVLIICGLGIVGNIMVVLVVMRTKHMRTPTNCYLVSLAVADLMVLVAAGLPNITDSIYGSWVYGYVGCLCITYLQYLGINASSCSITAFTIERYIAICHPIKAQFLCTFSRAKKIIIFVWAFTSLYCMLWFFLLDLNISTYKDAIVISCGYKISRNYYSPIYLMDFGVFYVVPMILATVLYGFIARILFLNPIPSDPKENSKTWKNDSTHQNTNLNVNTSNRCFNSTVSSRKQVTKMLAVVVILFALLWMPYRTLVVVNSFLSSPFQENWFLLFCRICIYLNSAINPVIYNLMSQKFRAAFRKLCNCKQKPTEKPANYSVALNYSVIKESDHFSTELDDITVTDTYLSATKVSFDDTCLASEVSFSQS

[4] = target: T1, Serine/threonine-protein kinase LATS1 (Homo sapiens) (UniProt O95835); test: Selectivity interaction (ActivX KiNativ screen (kinase selectivity in THP-1 cell lysates)) EUB0000639a LATS1; format: subcellular; conditions: lysate, at 0.2 µM
T1 sequence (whole entry): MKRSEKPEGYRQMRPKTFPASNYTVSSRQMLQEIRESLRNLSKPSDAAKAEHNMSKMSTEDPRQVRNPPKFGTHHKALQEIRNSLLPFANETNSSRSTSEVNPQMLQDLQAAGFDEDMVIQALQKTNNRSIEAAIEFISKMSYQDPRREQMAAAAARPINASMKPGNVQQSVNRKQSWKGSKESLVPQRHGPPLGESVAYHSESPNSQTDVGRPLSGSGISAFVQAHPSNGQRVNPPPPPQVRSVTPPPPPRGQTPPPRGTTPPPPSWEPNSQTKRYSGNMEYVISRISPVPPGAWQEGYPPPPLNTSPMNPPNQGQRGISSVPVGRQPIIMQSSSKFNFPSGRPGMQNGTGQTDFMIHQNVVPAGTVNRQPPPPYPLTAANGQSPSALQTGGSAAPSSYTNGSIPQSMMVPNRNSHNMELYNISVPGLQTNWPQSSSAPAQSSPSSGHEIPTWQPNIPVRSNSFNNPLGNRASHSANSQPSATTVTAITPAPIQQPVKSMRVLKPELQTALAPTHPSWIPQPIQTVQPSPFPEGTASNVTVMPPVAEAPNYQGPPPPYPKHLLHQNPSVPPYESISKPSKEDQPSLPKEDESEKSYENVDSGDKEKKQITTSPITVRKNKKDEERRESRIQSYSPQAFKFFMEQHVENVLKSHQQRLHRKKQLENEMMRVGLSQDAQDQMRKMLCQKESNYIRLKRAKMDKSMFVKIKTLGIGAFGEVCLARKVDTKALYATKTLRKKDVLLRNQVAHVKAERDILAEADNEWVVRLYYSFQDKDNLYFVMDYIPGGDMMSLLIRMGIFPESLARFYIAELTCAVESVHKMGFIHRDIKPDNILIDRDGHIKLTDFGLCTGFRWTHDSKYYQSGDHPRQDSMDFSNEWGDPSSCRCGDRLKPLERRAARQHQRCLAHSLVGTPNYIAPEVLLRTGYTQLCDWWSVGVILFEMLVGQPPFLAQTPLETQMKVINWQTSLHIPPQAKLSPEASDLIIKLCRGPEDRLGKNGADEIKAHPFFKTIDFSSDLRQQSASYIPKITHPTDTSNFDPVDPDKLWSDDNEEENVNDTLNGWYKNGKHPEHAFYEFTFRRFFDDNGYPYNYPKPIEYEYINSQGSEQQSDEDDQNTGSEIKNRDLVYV

[5] = target: Ribosomal protein S6 kinase alpha-5 (Homo sapiens) (UniProt O75582); test: Selectivity interaction (Ambit KINOMEscan and KiNATiv profiling in Jurkat cells) EUB0000090b RPS6KA5; format: cell-based; conditions: at 1 µM
Ribosomal protein S6 kinase alpha-5 (Homo sapiens), sequence (O75582 whole entry, looked up): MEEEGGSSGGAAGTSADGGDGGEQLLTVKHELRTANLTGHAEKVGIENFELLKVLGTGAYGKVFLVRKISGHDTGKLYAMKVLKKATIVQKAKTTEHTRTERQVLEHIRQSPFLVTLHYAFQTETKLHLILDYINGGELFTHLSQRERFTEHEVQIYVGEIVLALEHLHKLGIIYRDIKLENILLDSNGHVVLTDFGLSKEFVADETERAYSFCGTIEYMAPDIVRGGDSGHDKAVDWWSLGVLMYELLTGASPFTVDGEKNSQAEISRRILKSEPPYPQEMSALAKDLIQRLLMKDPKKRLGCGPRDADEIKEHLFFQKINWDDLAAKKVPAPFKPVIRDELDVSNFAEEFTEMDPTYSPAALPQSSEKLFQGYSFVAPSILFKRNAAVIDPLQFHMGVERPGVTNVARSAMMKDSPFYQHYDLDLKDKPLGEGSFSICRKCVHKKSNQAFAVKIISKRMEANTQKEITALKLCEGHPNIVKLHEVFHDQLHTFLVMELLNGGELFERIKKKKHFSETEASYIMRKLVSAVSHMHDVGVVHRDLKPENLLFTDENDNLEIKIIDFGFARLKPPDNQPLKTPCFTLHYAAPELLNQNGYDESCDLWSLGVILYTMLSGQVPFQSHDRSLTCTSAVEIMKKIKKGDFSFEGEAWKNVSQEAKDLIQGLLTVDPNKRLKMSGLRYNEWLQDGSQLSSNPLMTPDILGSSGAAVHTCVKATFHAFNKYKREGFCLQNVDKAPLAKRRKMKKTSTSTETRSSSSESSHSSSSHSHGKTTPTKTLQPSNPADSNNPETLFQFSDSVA

[6] = target: T2, Cyclin-G-associated kinase (Homo sapiens) (UniProt O14976); test: Selectivity interaction (KinomeScan (DiscoverX)) EUB0000045b GAK
T2 sequence (whole entry): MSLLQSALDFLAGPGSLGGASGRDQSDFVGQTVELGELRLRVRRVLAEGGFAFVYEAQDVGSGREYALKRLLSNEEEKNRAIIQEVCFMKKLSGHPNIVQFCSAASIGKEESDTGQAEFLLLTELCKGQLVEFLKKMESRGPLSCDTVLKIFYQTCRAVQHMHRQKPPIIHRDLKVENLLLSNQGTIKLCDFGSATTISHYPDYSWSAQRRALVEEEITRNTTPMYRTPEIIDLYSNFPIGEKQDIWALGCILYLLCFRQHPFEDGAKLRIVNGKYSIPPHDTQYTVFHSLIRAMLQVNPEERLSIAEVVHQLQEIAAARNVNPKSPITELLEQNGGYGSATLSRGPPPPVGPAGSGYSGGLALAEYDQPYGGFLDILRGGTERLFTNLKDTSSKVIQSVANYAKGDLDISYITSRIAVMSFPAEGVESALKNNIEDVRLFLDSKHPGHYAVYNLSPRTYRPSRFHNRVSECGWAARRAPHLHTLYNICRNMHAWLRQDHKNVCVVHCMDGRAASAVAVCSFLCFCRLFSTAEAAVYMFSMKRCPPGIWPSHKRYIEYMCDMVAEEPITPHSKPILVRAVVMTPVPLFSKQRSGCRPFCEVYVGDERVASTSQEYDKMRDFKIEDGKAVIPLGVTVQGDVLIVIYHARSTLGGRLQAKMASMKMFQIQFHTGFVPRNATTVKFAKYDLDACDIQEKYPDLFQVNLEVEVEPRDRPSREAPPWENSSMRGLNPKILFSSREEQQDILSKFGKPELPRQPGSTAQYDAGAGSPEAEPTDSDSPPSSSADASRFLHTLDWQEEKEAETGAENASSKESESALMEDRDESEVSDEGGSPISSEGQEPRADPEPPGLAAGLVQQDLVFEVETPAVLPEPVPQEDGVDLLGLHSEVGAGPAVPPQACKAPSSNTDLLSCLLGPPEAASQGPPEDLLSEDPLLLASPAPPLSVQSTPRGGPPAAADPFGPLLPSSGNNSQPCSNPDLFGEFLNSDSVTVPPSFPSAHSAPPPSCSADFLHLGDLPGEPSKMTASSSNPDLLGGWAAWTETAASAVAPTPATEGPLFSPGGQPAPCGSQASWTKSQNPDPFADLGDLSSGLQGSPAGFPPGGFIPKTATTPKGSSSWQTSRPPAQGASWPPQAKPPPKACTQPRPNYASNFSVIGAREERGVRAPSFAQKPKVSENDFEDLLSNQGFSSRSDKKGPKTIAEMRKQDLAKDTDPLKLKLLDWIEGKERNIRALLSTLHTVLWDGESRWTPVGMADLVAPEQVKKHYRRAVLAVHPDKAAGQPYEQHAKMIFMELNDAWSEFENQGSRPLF

[7] = target: Fibroblast growth factor receptor 3 (Homo sapiens, UniProt P22607); test: Selectivity interaction (Upstate Kinase Profiler service (Millipore)) EUB0000056c FGFR3; conditions: at 1 µM
[8] = target: Serine/threonine-protein kinase PAK 3 (Homo sapiens) (UniProt O75914); test: Selectivity interaction (SelectScreen profiling (Invitrogen)) EUB0000607a PAK3; conditions: at 2 µM
Serine/threonine-protein kinase PAK 3 (Homo sapiens), sequence (O75914 whole entry, looked up): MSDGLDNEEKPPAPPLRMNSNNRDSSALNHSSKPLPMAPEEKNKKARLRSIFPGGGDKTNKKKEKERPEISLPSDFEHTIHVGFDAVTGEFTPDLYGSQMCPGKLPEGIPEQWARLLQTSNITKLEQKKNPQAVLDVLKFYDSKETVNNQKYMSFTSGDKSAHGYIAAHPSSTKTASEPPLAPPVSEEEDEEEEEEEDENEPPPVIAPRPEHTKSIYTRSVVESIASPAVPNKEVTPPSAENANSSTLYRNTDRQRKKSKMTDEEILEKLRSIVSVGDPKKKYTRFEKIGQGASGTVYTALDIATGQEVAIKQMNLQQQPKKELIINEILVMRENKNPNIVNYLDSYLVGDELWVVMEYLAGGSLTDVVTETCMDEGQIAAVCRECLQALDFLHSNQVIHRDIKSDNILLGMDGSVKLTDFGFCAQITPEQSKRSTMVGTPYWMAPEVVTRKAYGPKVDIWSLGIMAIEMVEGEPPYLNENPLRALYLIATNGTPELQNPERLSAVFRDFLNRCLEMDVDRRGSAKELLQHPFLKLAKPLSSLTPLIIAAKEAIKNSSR

[9] = system: Proto-oncogene tyrosine-protein kinase receptor Ret (Homo sapiens), P07949 [V804M]; test: Selectivity interaction (LanthaScreen Eu Kinase Binding Assay) EUB0001632a RET; conditions: at 10 µM
Proto-oncogene tyrosine-protein kinase receptor Ret (Homo sapiens), P07949 [V804M], sequence (P07949 whole entry V804M): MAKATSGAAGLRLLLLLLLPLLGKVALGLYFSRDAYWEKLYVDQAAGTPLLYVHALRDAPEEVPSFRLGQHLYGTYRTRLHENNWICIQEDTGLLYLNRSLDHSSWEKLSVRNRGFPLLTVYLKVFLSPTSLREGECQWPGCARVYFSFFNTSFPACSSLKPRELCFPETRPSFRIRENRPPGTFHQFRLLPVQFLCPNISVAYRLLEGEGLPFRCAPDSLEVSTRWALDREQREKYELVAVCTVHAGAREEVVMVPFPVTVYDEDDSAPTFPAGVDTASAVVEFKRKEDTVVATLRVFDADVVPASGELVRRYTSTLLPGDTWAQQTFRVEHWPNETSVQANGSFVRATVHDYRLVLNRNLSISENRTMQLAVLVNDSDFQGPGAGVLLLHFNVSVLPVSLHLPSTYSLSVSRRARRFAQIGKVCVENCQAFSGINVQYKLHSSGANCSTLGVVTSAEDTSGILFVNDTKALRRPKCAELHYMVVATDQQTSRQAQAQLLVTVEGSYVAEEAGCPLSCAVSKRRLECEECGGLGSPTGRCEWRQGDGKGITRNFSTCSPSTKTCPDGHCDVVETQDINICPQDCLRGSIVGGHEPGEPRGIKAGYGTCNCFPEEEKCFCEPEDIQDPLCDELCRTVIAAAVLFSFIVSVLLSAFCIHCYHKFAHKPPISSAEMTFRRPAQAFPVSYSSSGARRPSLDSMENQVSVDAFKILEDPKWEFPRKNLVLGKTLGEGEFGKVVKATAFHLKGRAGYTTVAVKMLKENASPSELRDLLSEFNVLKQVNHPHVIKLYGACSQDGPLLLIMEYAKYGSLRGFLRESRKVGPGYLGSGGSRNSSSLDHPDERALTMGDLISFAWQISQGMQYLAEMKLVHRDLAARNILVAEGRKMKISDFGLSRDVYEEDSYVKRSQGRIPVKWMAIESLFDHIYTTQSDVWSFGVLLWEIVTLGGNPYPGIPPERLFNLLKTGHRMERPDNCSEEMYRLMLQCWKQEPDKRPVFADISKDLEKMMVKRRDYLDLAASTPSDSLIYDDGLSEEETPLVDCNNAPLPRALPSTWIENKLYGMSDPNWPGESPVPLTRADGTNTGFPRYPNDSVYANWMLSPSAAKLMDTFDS

Tyrosine-protein kinase JAK2, sequence (O60674 whole entry, canonical isoform): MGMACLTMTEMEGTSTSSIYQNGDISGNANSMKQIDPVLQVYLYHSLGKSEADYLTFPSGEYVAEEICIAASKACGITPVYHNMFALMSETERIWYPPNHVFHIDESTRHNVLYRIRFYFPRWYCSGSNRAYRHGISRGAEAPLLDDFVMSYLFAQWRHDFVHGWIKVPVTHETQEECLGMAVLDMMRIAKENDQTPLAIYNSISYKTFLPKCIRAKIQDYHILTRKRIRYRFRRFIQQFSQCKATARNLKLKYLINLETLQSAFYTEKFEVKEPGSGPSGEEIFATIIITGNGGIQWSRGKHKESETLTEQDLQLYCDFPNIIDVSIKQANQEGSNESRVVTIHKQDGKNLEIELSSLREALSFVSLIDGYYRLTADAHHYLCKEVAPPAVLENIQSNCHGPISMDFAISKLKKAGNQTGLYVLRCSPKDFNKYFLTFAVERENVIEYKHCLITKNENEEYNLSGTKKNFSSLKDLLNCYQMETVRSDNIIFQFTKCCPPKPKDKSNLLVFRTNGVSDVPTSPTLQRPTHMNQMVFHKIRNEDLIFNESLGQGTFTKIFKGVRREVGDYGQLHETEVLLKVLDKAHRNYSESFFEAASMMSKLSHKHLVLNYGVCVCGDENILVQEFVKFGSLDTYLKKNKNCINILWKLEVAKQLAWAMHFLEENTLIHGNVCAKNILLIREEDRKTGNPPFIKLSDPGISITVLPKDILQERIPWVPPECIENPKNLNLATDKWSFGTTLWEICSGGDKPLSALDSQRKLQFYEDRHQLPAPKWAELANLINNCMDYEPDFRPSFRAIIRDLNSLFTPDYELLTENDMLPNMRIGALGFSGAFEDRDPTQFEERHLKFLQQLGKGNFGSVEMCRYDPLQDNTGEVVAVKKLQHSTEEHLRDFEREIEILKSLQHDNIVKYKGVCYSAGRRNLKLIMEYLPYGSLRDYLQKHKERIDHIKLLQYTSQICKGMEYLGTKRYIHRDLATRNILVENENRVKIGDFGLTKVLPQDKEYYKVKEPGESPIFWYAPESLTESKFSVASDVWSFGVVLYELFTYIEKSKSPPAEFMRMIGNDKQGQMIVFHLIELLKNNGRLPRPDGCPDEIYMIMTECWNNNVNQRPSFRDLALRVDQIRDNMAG
Casein kinase I isoform gamma-3 (Homo sapiens), sequence (Q9Y6M4 whole entry, looked up, canonical isoform): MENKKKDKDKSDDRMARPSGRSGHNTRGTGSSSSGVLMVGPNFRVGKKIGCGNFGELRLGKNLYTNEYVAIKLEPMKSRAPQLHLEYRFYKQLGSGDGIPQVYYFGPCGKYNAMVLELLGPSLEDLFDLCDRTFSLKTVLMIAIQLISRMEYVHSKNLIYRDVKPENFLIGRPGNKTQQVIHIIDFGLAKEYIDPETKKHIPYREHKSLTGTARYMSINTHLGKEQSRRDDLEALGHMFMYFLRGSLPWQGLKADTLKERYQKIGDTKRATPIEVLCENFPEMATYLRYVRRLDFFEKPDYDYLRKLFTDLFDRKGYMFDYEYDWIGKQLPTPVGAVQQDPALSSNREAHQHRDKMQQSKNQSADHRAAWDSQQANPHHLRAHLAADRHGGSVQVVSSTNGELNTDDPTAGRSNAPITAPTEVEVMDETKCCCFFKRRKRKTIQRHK

## COc1cc(Nc2nc(C)cc(-c3cnn4nc(OC)ccc34)n2)cc(C(F)(F)F)c1
[1]
  % of control: 85%

## COc1cc(N(C)c2ccnc3ccc(C(F)(F)F)cc23)cc(OC)c1OC
[2]
  % binding: 86%

## CC(=O)c1cc(-c2ccccc2OCC2CC2)c2ncccn12
[3]
  % of control: 94%

## CC[C@@H]1[C@H](F)C(=O)N[C@@H]1COc1nccc2cc(C(N)=O)c(OC)cc12 [ZIMLOVISERTIB]
[4]
  % of inhibition: -82.2%

## CN(C)C/C=C/C(=O)Nc1ccc(C(=O)N2CCCC(Nc3ncc(Cl)c(-c4c[nH]c5ccccc45)n3)C2)cc1 (stereo not given)
[5]
  % of control: 86%

## C=CC(=O)Nc1cc(-n2c(=O)ccc3cnc4ccc(-c5ccc(NS(C)(=O)=O)cc5)cc4c32)ccc1C
[6]; at 1 µM
  % of control: 74%
[6]; at 10 µM
  % of control: 23%

## Cc1ccc(-c2ccc3c(ccc4sc5c(c43)NC[C@@H](C)NC5=O)n2)cn1
[7]
  % of inhibition: 16%

## CNC(=O)Nc1ccc(-c2nc(N3CC4CCC(C3)O4)c3cnn(C4CCC5(CC4)OCCO5)c3n2)cc1
[8]
  % of inhibition: 1%

## Cn1cc(-n2cnc3c(NCc4nc5cc(Cl)c(Cl)cc5[nH]4)nc(N4CCOCC4)nc32)cn1
[9]
  % of inhibition: -50.1%
